Like-named read-outs stand apart in the source and are kept apart here.

Experiment [1] concerns the target T1, 5-HT1A receptor (Homo sapiens, UniProt P08908).
T1 sequence (P08908 1-422): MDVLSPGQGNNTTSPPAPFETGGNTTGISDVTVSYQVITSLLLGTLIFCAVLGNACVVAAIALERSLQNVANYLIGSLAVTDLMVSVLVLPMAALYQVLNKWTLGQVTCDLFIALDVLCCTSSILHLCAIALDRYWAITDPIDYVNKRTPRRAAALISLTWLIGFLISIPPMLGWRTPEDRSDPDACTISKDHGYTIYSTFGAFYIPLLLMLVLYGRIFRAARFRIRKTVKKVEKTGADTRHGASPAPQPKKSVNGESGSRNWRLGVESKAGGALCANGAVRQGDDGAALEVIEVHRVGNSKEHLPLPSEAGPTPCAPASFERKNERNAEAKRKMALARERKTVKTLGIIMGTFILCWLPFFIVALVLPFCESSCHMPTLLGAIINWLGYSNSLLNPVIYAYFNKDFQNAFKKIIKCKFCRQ
In words: 5-HT1A receptor affinity: displacement of [3H] 8-OH-DPAT. The conditions noted are these: for inhibition at 1 µM: read-out: 5-HT1A Receptor Affinity, % @ 1 μM; for Ki: displacement of [3H] 8-OH-DPAT, CHO cells stably transfected with human 5-HT1A receptors, read-out: 5-HT1A Receptor Affinity Ki. Set-up: expressed in transfected cells. It counts as binding. For orientation: In a radioligand displacement assay an active substance lowers the binding of a labelled ligand.

The target in experiment [2] is T2, cloned human 5-HT1A receptors (Homo sapiens, UniProt P08908).
T2 construct: expressed in transfected cells
T2 sequence (P08908 1-422): T1 sequence (P08908 1-422)
In words: 35S-GTPγS binding assay, 5-HT1A function. It counts as biochemical. The conditions noted are these: for IC50: antagonist potency, reversal of 8-OH-DPAT, read-out: 5-HT1A Function GTPγS IC50; for EC50: agonist potency.

The target of experiment [3] is T3, serotonin transporter (Rattus norvegicus, UniProt P31652).
T3 construct: displace ^3H-paroxetine from male rat cortical membranes; from tissue; host or cells: male rat cortical membranes
T3 sequence (P31652 whole entry): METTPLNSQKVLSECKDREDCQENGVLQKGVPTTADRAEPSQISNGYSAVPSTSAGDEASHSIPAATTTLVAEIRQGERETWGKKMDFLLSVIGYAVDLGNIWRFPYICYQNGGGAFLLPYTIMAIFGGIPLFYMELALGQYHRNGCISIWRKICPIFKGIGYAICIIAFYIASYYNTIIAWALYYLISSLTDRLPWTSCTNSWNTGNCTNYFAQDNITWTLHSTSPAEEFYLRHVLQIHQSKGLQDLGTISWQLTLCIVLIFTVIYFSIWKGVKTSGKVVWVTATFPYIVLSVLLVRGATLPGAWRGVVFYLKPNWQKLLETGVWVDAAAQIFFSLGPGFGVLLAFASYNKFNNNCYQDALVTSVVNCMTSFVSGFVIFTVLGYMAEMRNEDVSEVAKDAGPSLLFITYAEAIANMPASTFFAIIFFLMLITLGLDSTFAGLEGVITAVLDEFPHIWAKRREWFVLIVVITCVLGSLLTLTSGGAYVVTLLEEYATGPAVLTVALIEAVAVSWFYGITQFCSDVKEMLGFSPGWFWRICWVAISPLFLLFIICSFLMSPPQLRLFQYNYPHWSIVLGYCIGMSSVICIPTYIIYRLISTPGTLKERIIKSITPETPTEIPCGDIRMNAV
Put plainly: 5-HT transporter affinity: displacement of 3H-paroxetine from male rat cortical membranes. In kind it is binding. The conditions noted are these: displacement of 3H-paroxetine; male rat cortical membranes; read-out: 5-HT Transporter Affinity Ki.

Setting [4] is: maximum inhibitory effect, in brackets after IC50, read-out: 5-HT1A Function GTPγS (Imax).
[5] abbreviates: maximum stimulatory effect, in brackets after EC50, read-out: 5-HT1A Function GTPγS (Emax).

A word on the IC50: it is the midpoint of a concentration-inhibition curve. The Ki is a dissociation constant, usually derived from enzyme kinetics or from competition with a known ligand. For the compound `O=C(O)c1ccc(F)c2c1CC(N(CCCc1c[nH]c3ccc(F)cc13)C1CCC1)CO2` (stereo not shown) [Compound 56, 3-{cyclobutyl[3-(5-fluoro-1H-indol-3-yl)propyl]amino}-8-fluorochromane-5-carboxylic acid], in experiment [1], the inhibition at 1 µM is 4%. Also, the IC50 in experiment [2] was 5000 nM. Moreover, the Emax in experiment [2] (setting [4]) was found to be 50%. Besides, the Ki in experiment [3] was 499 nM.

As for `CC(CCc1c[nH]c2c(F)cc(F)cc12)N(CC1CC1)C1COc2c(F)ccc(C(N)=O)c2C1` (single isomer, unassigned) [Compound 154a, 3-{(cyclopropylmethyl)[3-(5,7-difluoro-1H-indol-3-yl)-1-methylpropyl]amino}-8-fluorochromane-5-carboxamide], the inhibition constant (Ki) in experiment [1] stood at 6.35 nM; in experiment [3], 65 nM. For the same compound, the IC50 in experiment [2] is 235 nM. In addition, the 5-HT1A Function GTPγS (Imax) in experiment [2] (maximum inhibitory effect, in brackets after IC50) was determined as 100%.

Consider `CCCCCN(CCCc1c[nH]c2ccc(F)cc12)C1COc2c(F)ccc(C(N)=O)c2C1` (stereo not shown) [Compound 71, 8-fluoro-3-[[3-(5-fluoro-1H-indol-3-yl)propyl](pentyl)amino]chromane-5-carboxamide], for which the inhibition at 1 µM in experiment [1] is 44%. Also, the IC50 in experiment [2] was found to be 8000 nM. In experiment [2] (setting [4]), the Emax amounted to 13%. The Ki in experiment [3] came out at 212 nM.

Take `O=C(NCC1CC1)c1ccc(F)c2c1CC(N(CCCc1c[nH]c3ccc(F)cc13)C1CCC1)CO2` (stereo not shown) [Compound 68, 3-{cyclobutyl[3-(5-fluoro-1H-indol-3-yl)propyl]amino}-N-(cyclopropylmethyl)-8-fluorochromane-5-carboxamide]: the Ki in experiment [1] came to 161 nM; in experiment [3], 4.4 nM. Further, in experiment [2], the half-maximal inhibitory concentration (IC50) is 1300 nM. Moreover, the Emax in experiment [2] (setting [4]) came to 50%.

`COC(=O)c1ccc(F)c2c1C[C@@H](N(CCCCc1c[nH]c3ccc(F)cc13)C1CCC1)CO2` [Compound 58b, Methyl (3R)-3-{cyclobutyl[4-(5-fluoro-1H-indol-3-yl)butyl]amino}-8-fluorochromane-5-carboxylate]: the Ki in experiment [1] amounted to 138 nM; in experiment [3] it was 29.2 nM. The IC50 in experiment [2] was 626 nM. For the same compound, in experiment [2] (setting [4]), the Emax is 94%.

For `NC(=O)c1ccc(F)c2c1C[C@@H](NCC1CCc3c([nH]c4ccc(F)cc34)C1)CO2` (single isomer, unassigned; (+)) [Compound 179a], the inhibition at 1 µM in experiment [1] worked out at 48%. Besides, the IC50 in experiment [2] was determined as 9030 nM. In experiment [2] (setting [4]), the Emax was 100%. For the same compound, the Ki in experiment [3] amounted to 33.2 nM.

As to `COc1cccc2c(CCCNC3COc4c(F)ccc(C(N)=O)c4C3)c[nH]c12` (stereo not shown) [Compound 99, 8-fluoro-3-{[3-(7-methoxy-1H-indol-3-yl)propyl]amino}chromane-5-carboxamide], in experiment [1], the inhibition at 1 µM is 48%. Moreover, the IC50 in experiment [2] is 4020 nM. Moreover, the Emax in experiment [2] (setting [4]) was determined as 100%. Moreover, in experiment [3], the Ki came out at 525 nM.

Broadly, the EC50 is the concentration needed to bring the measured effect to its halfway point. A higher EC50 goes with weaker potency. For `CNC(=O)c1ccc(F)c2c1CC(NCCCc1c[nH]c3ccc(F)cc13)CO2` (stereo not shown) [Compound 88, 8-fluoro-3-{[3-(5-fluoro-1H-indol-3-yl)propyl]amino}-N-methylchromane-5-carboxamide], the Ki in experiment [1] was found to be 54.6 nM; in experiment [3], 12.2 nM. Also, in experiment [2], the EC50 is 1780 nM. For the same compound, the Emax in experiment [2] (setting [5]) amounted to 94%.

`CNC(=O)c1cccc2c1CC(N(CCCc1c[nH]c3c(F)cc(F)cc13)C1CCC1)CO2` (stereo not shown) [Compound 138, 3-{cyclobutyl[3-(5,7-difluoro-1H-indol-3-yl)propyl]amino}-N-methylchromane-5-carboxamide]: the inhibition constant (Ki) in experiment [1] was 1.27 nM; in experiment [3], 3.34 nM. The compound also gave an EC50 in experiment [2] of 43 nM. Further, in experiment [2] (setting [5]), the Emax came to 100%.

As to `O=C(NC1CCCCC1)c1ccc(F)c2c1CC(N(CCCc1c[nH]c3ccc(F)cc13)C1CCC1)CO2` (stereo not shown) [Compound 67, 3-{cyclobutyl[3-(5-fluoro-1H-indol-3-yl)propyl]amino}-N-cyclohexyl-8-fluorochromane-5-carboxamide], the inhibition at 1 µM in experiment [1] amounted to 44%. For the same compound, the half-inhibitory concentration (IC50) in experiment [2] was found to be 1970 nM. Besides, in experiment [2] (setting [4]), the Emax worked out at 76%. In addition, the Ki in experiment [3] is 19.8 nM.

(Values after patent publication US20050032873A1, “3-Amino chroman and 2-amino tetralin derivatives” (Wyeth, priority 2003, published 2005).)
